From article PMC4841536, “Characterization of the Anti-HCV Activities of the New Cyclophilin Inhibitor STG-175” (PLoS ONE, 2016)
Where two headings read alike, the source gives them in different places.

Tests used:
[1] = alamarBlue cytotoxicity (CC50), GT3a replicon cell line; details: human
Method: (§1) The anti-HCV activity of STG-175 was conducted using a panel of luciferase reporter replicon cell lines including GT1a, GT1b, GT2a, GT3a and GT4a as we described previously. The GT1a subgenomic renilla luciferase reporter replicon H77 RLucP (7) was supplied by Dr. Delaney. The GT1b subgenomic firefly luciferase reporter replicon pFK-I389/NS3-3’ [29] was supplied by Dr. Bartenschlager. The GT1B subgenomic NS3, NS5A and NS5B mutants were created via homologous recombination using the In-Fusion HD Cloning kit (Clontech) as we described previously. The GT2a genomic luciferase reporter replicon Luc-Neo-JFH-1 was generated as previously. The plasmid pFK-Luc-JFH1 was supplied from Drs. […] The CellTiter-Fluor™ Cell Viability Assay is a non-lytic fluorescence assay, which measures the number of live cells. […] Luciferase activity was determined using the Luciferase Assay System (Promega) in a Berthold luminometer. […] Viable cells continuously convert resazurin to resorufin, increasing the overall fluorescence and color of the media surrounding cells.
(§2) Fig 2 Anti-HCV activities of STG-175 among GTs. […] Luciferase activity was determined using the Luciferase Assay System in a Berthold luminometer. […] Data are expressed as mean of relative light units and calculated EC50s are presented. […]

[2] = tested on: HCV GT2a genomic replicon Luc-Neo-JFH-1; test: Luciferase reporter replicon antiviral assay, GT2a; format: cell-based; details: Hepatitis C virus
Method: as §1, §2

[3] = tested on: wild-type Con1 (GT1b) replicon colonies; test: Degree of resistance of replicon colonies, wild-type; format: cell-based; details: Hepatitis C virus, read-out: EC50 of STG-175, WT colonies
Method: Huh-7 cells expressing subgenomic Con1 (GT1b) replicon were incubated with STG-175 and 100 μg/ml of G418 in 10 cm CellBIND™ plates (Corning). Cells were split every 3 days at 1:6 and G418 concentration was increased sequentially to 200 and 300 μg/mL. […] At this point, medium was changed every 3–4 days until emergence of resistant clones. Clones were individually transferred to 24-well CellBIND using cloning disks. […] Each clone was split in 2 identical plates and was separately maintained under 0.5 or 1.0 μM STG-175 and 100 μg/mL of G418. Once the colonies were established, G418 concentration was increased to 300 μg/mL. […] Briefly, total RNA was prepared using the RNeasy Plus Mini Kit as per manufacturer’s recommendation. […] The amplicons were gel purified, quantitated and sequenced using primers located internally in NS5A or NS5B reading to the 5’ and 3’ ends. Sequences were assembled and analyzed using the ClustalW algorithm within the MacVector program. […]
Fig 3 Replicon clearance, replication rebound and resistance analyses. […] At each passage, samples of cells were collected, RNA extracted and analyzed by RT-PCR for HCV RNA levels. […] At each passage, sample of cells were collected, RNA extracted and analyzed by RT-PCR for HCV RNA levels. […] Data are expressed as number of HCV RNA copies per cell. […] Data are expressed as mean of relative light units and calculated EC50s are presented. […]

## CC=CCC(C)C(O)C1C(=O)NC(CC)C(=O)N(C)C(CSCCCCO)C(=O)N(C)C(CC(C)(C)O)C(=O)NC(C(C)C)C(=O)N(C)C(CC(C)C)C(=O)NC(C)C(=O)NC(C)C(=O)N(C)C(CC(C)C)C(=O)N(C)C(CC(C)C)C(=O)N(C)C(C(C)C)C(=O)N1C (stereo not shown) [STG-175]
[1]
  CC50 at 72 h: > 10000 nM
[2]; 72 h post-drug addition, luciferase, read-out: EC50 GT2a
  EC50: 11.5 nM
[2]; Fig 2D table, unit inferred, read-out: EC50 GT2a (Fig 2D)
  EC50: 11.5 nM
[3]
  EC50: 15.7 nM
